Experimental data published in US12324802B2, “Modulators of cystic fibrosis transmembrane conductance regulator” (Vertex Pharmaceuticals Incorporated, priority 2020, dated 2025).

Biological target: T1, CFTR (F508del/MF-HBE cells) (Homo sapiens, UniProt P13569, DEL508-508)
T1 construct: human bronchial epithelial (HBE) cells derived from CF subjects heterozygous for F508del and a minimal function CFTR mutation; endogenous in cells; host or cells: primary human bronchial epithelial cells from CF subjects (F508del/MF genotype)
Assay: Ussing chamber assay of CFTR-mediated short-circuit currents (identification of potentiator compounds)
Type: cell-based
Details: CFTR-mediated ISC in F508del/MF-HBE cells; incubated 18-24 hours at 37° C. with 10 μM (14S)-8-[3-(2-{dispiro[2.0.2.1]heptan-7-yl}ethoxy)-1H-pyrazol-1-yl]-...-2,2,4-trione, 20% human serum
Description: Ussing Chamber Assay of CFTR-Mediated Short-Circuit Currents
Ussing chamber experiments were performed using human bronchial epithelial (HBE) cells derived from CF subjects heterozygous for F508del and a minimal function CFTR mutation (F508del/MF-HBE) and cultured as previously described (Neuberger T, Burton B, Clark H, Van Goor F Methods Mol Biol 2011:741:39-54). After four days the apical media was removed, and the cells were grown at an air liquid interface for >14 days prior to use.
To isolate the CFTR-mediated short-circuit (ISC) current, F508del/MF-HBE grown on Costar® Snapwell™ cell culture inserts were mounted in an Ussing chamber and the transepithelial ISC was measured under voltage-clamp recording conditions (Vhold=0 mV) at 37° C. The basolateral solution contained (in mM) 145 NaCl, 0.83 K2HPO4, 3.3 KH2PO4, 1.2 MgCl2, 1.2 CaCl2), 10 Glucose, 10 HEPES (pH adjusted to 7.4 with NaOH) and the apical solution contained (in mM) 145 NaGluconate, 1.2 MgCl2, 1.2 CaCl2), 10 glucose, 10 HEPES (pH adjusted to 7.4 with NaOH) and 30 μM amiloride to block the epithelial sodium channel. Forskolin (20 μM) was added to the apical surface to activate CFTR, followed by apical addition of a CFTR inhibitor cocktail consisting of BPO, GlyH-101 and CFTR inhibitor 172 (each at 20 μM final assay concentration) to specifically isolate CFTR currents. The CFTR-mediated ISC (μA/cm^2) for each condition was determined from the peak forskolin response to the steady-state current following inhibition.
Identification of Potentiator Compounds
The activity of the CFTR potentiator compounds on the CFTR-mediated ISC was determined in Ussing chamber studies as described above. The F508del/MF-HBE cell cultures were incubated with the potentiator compounds at a range of concentrations in combination with 10 μM (14S)-8-[3-(2-{dispiro[2.0.2.1]heptan-7-yl}ethoxy)-1H-pyrazol-1-yl]-12,12-dimethyl-2λ^6-thia-3,9,11,18,23-pentaazatetracyclo [17.3.1.111,14.05,10]tetracosa-1(22),5,7,9,19(23),20-hexaene-2,2,4-trione for 18-24 hours at 37° C. and in the presence of 20% human serum. The concentration of potentiator compounds and (14S)-8-[3-(2-{dispiro[2.0.2.1]heptan-7-yl}ethoxy)-1H-pyrazol-1-yl]-12,12-dimethyl-2λ^6-thia-3,9,11,18,23-pentaazatetracyclo [17.3.1.111,14.05,10]tetracosa-1(22),5,7,9,19(23),20-hexaene-2,2,4-trione used during the 18-24 hours incubations was kept constant throughout the Ussing chamber measurement of the CFTR-mediated ISC to ensure compounds were present throughout the entire experiment. The efficacy and potency of the putative F508del potentiators was compared to that of the known Vertex potentiator, ivacaftor (N-[2,4-bis(1,1-dimethylethyl)-5-hydroxyphenyl]-1,4-dihydro-4-oxoquinoline-3-carboxamide).

T1 sequence (P13569 with tags, fused parts or gaps DEL508-508): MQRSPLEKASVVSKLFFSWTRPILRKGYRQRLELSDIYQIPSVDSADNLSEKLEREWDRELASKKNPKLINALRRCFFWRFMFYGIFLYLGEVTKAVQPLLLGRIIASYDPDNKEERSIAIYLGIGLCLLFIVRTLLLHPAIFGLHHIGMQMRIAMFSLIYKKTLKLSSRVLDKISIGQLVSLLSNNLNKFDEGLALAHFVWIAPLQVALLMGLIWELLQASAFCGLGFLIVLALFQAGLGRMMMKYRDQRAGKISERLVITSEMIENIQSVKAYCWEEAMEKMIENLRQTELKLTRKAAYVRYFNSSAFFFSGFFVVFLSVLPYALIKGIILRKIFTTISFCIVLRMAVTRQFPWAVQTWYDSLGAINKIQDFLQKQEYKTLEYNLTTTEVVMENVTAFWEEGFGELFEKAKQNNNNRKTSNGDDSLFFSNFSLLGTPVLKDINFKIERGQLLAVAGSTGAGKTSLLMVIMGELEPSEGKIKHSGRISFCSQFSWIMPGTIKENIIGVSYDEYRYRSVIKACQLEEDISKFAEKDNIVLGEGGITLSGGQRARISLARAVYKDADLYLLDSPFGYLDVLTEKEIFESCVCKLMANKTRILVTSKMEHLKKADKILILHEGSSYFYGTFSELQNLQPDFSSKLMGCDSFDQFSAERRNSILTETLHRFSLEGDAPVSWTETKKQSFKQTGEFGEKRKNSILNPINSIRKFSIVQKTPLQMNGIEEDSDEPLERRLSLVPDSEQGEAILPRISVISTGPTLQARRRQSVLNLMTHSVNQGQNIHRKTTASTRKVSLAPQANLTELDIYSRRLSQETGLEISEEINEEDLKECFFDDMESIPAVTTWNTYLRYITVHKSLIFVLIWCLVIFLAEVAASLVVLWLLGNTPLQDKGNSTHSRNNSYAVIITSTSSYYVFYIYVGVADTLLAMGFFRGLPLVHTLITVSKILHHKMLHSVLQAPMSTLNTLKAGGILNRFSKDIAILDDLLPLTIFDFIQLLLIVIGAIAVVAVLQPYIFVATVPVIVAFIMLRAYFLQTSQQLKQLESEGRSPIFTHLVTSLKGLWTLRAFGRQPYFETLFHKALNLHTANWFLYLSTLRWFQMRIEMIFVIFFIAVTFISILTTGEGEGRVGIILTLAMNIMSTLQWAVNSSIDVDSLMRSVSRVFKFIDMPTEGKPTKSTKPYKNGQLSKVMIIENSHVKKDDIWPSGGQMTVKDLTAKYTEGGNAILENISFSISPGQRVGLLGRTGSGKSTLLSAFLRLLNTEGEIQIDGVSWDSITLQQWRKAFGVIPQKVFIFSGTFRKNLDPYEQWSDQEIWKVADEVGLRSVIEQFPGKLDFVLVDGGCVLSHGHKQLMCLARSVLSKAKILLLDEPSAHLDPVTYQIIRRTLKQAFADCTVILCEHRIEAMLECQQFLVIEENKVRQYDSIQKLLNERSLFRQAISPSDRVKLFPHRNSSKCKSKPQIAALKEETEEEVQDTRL

CN1CCC=CCCC(=O)C2=NN=C(O2)c2nc1c(C(F)(F)F)cc2N (mixture of isomers) [Compound 75, 17-amino-13-methyl-15-(trifluoromethyl)-19-oxa-3,4,13,18-tetrazatricyclo[12.3.1.12,5]nonadeca-1(18),2,4,9,14,16-hexaen-6-one]
EC50: < 500 nM

Nc1cc(-c2ccccc2)c2nc1-c1nnc(o1)C(O)(C(F)(F)F)CCCCC[C@@H]1CCCN21 (mixture of isomers) [Compound 118, (12R)-20-amino-18-phenyl-6-(trifluoromethyl)-22-oxa-3,4,16,21-tetraazatetracyclo[15.3.1.12,5.012,16]docosa-1(21),2,4,17,19-pentaen-6-ol]
EC50: > 1000 nM

Nc1cc(C2CCOCC2)c2nc1-c1nnc(o1)C(O)(C(F)(F)F)CCCCC[C@@H]1CCCN21 (mixture of isomers) [Compound 123, (12R)-20-amino-18-(oxan-4-yl)-6-(trifluoromethyl)-22-oxa-3,4,16,21-tetraazatetracyclo[15.3.1.12,5.012,16]docosa-1(21),2,4,17,19-pentaen-6-ol]
EC50: > 1000 nM

Nc1cc(-c2ccncc2)c2nc1-c1nnc(o1)C(O)(C(F)(F)F)CCCCC[C@@H]1CCCN21 (mixture of isomers) [Compound 125, (12R)-20-amino-18-(pyridin-4-yl)-6-(trifluoromethyl)-22-oxa-3,4,16,21-tetraazatetracyclo[15.3.1.12,5.012,16]docosa-1(21),2,4,17,19-pentaen-6-ol]
EC50: > 1000 nM

Nc1cc(C2CCOC2)c2nc1-c1nnc(o1)C(O)(C(F)(F)F)CCCCC[C@@H]1CCCN21 (mixture of isomers) [Compound 126, (12R)-20-amino-18-(oxolan-3-yl)-6-(trifluoromethyl)-22-oxa-3,4,16,21-tetraazatetracyclo[15.3.1.12,5.012,16]docosa-1(21),2,4,17,19-pentaen-6-ol]
EC50: > 1000 nM

Cn1cc(-c2cc(N)c3nc2N2CCC[C@H]2CCCCCC(O)(C(F)(F)F)C2=NN=C3O2)cn1 (mixture of isomers) [Compound 127, (12R)-20-amino-18-(1-methyl-1H-pyrazol-4-yl)-6-(trifluoromethyl)-22-oxa-3,4,16,21-tetraazatetracyclo[15.3.1.12,5.012,16]docosa-1(21),2,4,17,19-pentaen-6-ol]
EC50: < 500 nM

Nc1cc(-c2cn[nH]c2)c2nc1-c1nnc(o1)C(O)(C(F)(F)F)CCCCC[C@@H]1CCCN21 (mixture of isomers) [Compound 128, (12R)-20-amino-18-(1H-pyrazol-4-yl)-6-(trifluoromethyl)-22-oxa-3,4,16,21-tetraazatetracyclo[15.3.1.12,5.012,16]docosa-1(21),2,4,17,19-pentaen-6-ol]
EC50: < 500 nM

Nc1cc(C2CCCCC2)c2nc1-c1nnc(o1)C(O)(C(F)(F)F)CCCCC[C@@H]1CCCN21 (mixture of isomers) [Compound 129, (12R)-20-amino-18-cyclohexyl-6-(trifluoromethyl)-22-oxa-3,4,16,21-tetraazatetracyclo[15.3.1.12,5.012,16]docosa-1(21),2,4,17,19-pentaen-6-ol]
EC50: < 500 nM

Nc1cc(-c2ccccn2)c2nc1-c1nnc(o1)C(O)(C(F)(F)F)CCCCC[C@@H]1CCCN21 (mixture of isomers) [Compound 132, (12R)-20-amino-18-(pyridin-2-yl)-6-(trifluoromethyl)-22-oxa-3,4,16,21-tetraazatetracyclo[15.3.1.12,5.012,16]docosa-1(21),2,4,17,19-pentaen-6-ol]
EC50: > 1000 nM

Nc1cc(S(=O)(=O)c2ccccc2)c2nc1-c1nnc(o1)C(O)(C(F)(F)F)CCCCC[C@@H]1CCCN21 (mixture of isomers) [Compound 133, (12R)-20-amino-18-(benzenesulfonyl)-6-(trifluoromethyl)-22-oxa-3,4,16,21-tetraazatetracyclo[15.3.1.12,5.012,16]docosa-1(20),2,4,17(21),18-pentaen-6-ol]
EC50: < 500 nM

Nc1cc(Cc2ccccc2)c2nc1-c1nnc(o1)C(O)(C(F)(F)F)CCCCC[C@@H]1CCCN21 (mixture of isomers) [Compound 137, (12R)-20-amino-18-benzyl-6-(trifluoromethyl)-22-oxa-3,4,16,21-tetraazatetracyclo[15.3.1.12,5.012,16]docosa-1(21),2,4,17,19-pentaen-6-ol]
EC50: < 500 nM

Nc1cc(C(F)(F)F)c2nc1-c1nnc(o1)[C@@](O)(C(F)(F)F)c1cc(ccc1F)C=CC[C@@H]1CCCN21 (mixture of isomers) [Compound 138, (6R,15S)-23-amino-8-fluoro-6,21-bis(trifluoromethyl)-26-oxa-3,4,19,24-tetraazapentacyclo[18.3.1.12,5.17,11.015,19]hexacosa-1(24),2,4,7(25),8,10,12,20,22-nonaen-6-ol]
EC50: < 500 nM

Nc1cc(C(F)(F)F)c2nc1-c1nnc(o1)[C@](O)(C(F)(F)F)c1cc(ccc1F)C=CC[C@@H]1CCCN21 (mixture of isomers) [Compound 139, (6S,15S)-23-amino-8-fluoro-6,21-bis(trifluoromethyl)-26-oxa-3,4,19,24-tetraazapentacyclo[18.3.1.12,5.17,11.015,19]hexacosa-1(24),2,4,7(25),8,10,12,20,22-nonaen-6-ol]
EC50: > 1000 nM

NC(=O)c1cc(N)c2nc1N1CCC[C@H]1CCCCCC(O)(C(F)(F)F)C1=NN=C2O1 (mixture of isomers) [Compound 142, (12R)-20-amino-6-hydroxy-6-(trifluoromethyl)-22-oxa-3,4,16,21-tetraazatetracyclo[15.3.1.12,5.012,16]docosa-1(21),2,4,17,19-pentaene-18-carboxamide]
EC50: > 1000 nM

Nc1cc(S(=O)(=O)c2ccc(OC(F)(F)F)cc2)c2nc1-c1nnc(o1)C(O)(C(F)(F)F)CCCCC[C@@H]1CCCN21 (mixture of isomers) [Compound 143, (12R)-20-amino-18-[4-(trifluoromethoxy)benzenesulfonyl]-6-(trifluoromethyl)-22-oxa-3,4,16,21-tetraazatetracyclo[15.3.1.12,5.012,16]docosa-1(20),2,4,17(21),18-pentaen-6-ol]
EC50: < 500 nM

Nc1cc([S+]([O-])c2ccc(OC(F)(F)F)cc2)c2nc1-c1nnc(o1)C(O)(C(F)(F)F)CCCCC[C@@H]1CCCN21 (mixture of isomers) [Compound 145, (12R)-20-amino-18-[4-(trifluoromethoxy)benzenesulfinyl]-6-(trifluoromethyl)-22-oxa-3,4,16,21-tetraazatetracyclo[15.3.1.12,5.012,16]docosa-1(21),2,4,17,19-pentaen-6-ol]
EC50: < 500 nM

Nc1cc(C(F)(F)F)c2nc1-c1nnc(o1)[C@](O)(C(F)(F)F)CCCCC[C@H]1CCCN21 (single isomer, unassigned) [Compound 6]
EC50: 500 to 1000 nM

Nc1cc(C(F)(F)F)c2nc1-c1nnc(o1)[C@@](O)(C(F)(F)F)CCCCC[C@H]1CCCN21 (single isomer, unassigned) [Compound 7]
EC50: < 500 nM

CN1CCCCCCC(O)(C(F)(F)F)C2=NN=C(O2)c2nc1c(C(F)(F)F)cc2N (single isomer, unassigned) [Compound 19, 17-amino-13-methyl-6,15-bis(trifluoromethyl)-19-oxa-3,4,13,18-tetrazatricyclo[12.3.1.12,5]nonadeca-1(18),2,4,14,16-pentaen-6-ol]
EC50: < 500 nM

CN1CCCCCCC(O)(C(F)(F)F)C2=NN=C(O2)c2nc1c(C(F)(F)F)cc2N (single isomer, unassigned) [Compound 20, 17-amino-13-methyl-6,15-bis(trifluoromethyl)-19-oxa-3,4,13,18-tetrazatricyclo[12.3.1.12,5]nonadeca-1(18),2,4,14,16-pentaen-6-ol]
EC50: 500 to 1000 nM

Nc1cc(C(F)(F)F)c2nc1-c1nnc(o1)C(O)CCCCC[C@@H]1CCCN21 (single isomer, unassigned) [Compound 21]
EC50: < 500 nM
